Assay results taken from patent publication US7129239B2, “Purine compounds and uses thereof” (Pfizer Inc., priority 2002, dated 2006).

System: CB-1 receptor
Assay: CB-1 receptor binding assay ([3H]SR141716A displacement)
Details: rat or human protocol not specified
Method: The following assays were designed to detect compounds that inhibit the binding of [^3H] SR141716A (selective radiolabeled CB-1 ligand) and [^3H]
PelFreeze brains (available from Pel Freeze Biologicals, Rogers, Ark.) were cut up and placed in tissue preparation buffer (5 mM Tris HCl, pH=7.4 and 2 mM EDTA), polytroned at high speed and kept on ice for 15 minutes. The homogenate was then spun at 1,000×g for 5 minutes at 4° C. The supernatant was recovered and centrifuged at 100,000×G for 1 hour at 4° C. […] A protein assay was performed and 200 μl of tissue totaling 20 μg was added to the assay.
The test compounds were diluted in drug buffer (0.5% BSA, 10% DMSO and TME) and then 25 μl were added to a deep well polypropylene plate. [^3H] SR141716A was diluted in a ligand buffer (0.5% BSA plus TME) and 25 μl were added to the plate. A BCA protein assay was used to determine the appropriate tissue concentration and then 200 μl of rat brain tissue at the appropriate concentration was added to the plate. […] In the morning the filters were counted on a Wallac Betaplate™ counter (available from PerkinElmer Life Sciences™, Boston, Mass.). […]
The test compounds were diluted in drug buffer (0.5% BSA, 10% DMSO and TME) and then 25 μl were added to a deep well polypropylene plate. […] In the morning the filters were counted on a Wallac Betaplate™ counter (available from PerkinElmer Life Sciences™, Boston, Mass.).

Work on `O=C([O-])C1(Nc2ncnc3c2nc(-c2ccccc2Cl)n3-c2ccc(Cl)cc2)CCCC1.[K+]` [Example 19A-1, 1-[9-(4-chlorophenyl)-8-(2-chlorophenyl)-9H-purin-6-ylamino]-cyclopentanecarboxylic Acid, Potassium Salt] yielded a binding activity of 2.8 nM.

Work on `NC1(C(=O)[O-])CCN(c2ncnc3c2nc(-c2ccccc2Cl)n3-c2ccc(Cl)cc2)CC1.[K+]` [Example 19A-2, 4-Amino-1-[9-(4-chlorophenyl)-8-(2-chlorophenyl)-9H-purin-6-yl]-piperidine-4-carboxylic Acid, Potassium Salt] yielded a binding activity of 1.2 nM.
